In article PMC12005349 (Journal of Cellular and Molecular Medicine, 2025):
No end group written: not given here.

Legend:
[1] = tested on: TGFβRI; set-up: method as in 2 sources, ref 51 = [51]; 51 SB431542 | Activin/BMP/TGF‐Beta Pathway Inhibitor | […] Technologies [Internet] , https://www.stemcell.com/products/sb431542.html . ||| ref 52 = [52]; 52 selleckchem.com [Internet] , “SD‐208 | 99.67%(HPLC) | TGF‐Beta/Smad Inhibitor” , https://www.selleckchem.com/products/sd‐208.html .; settings: cited from earlier work
[2] = biological target: T1, TGFβRI/TGFβRII receptor complex (Homo sapiens, UniProt P36897+P37173); assay: Dual-Luciferase reporter (CAGA12-Luc/TK Renilla) luminescence assay of TGF-β signalling on HEK293T cells; assay type: cell-based; settings: PI 500 nM to 50 μM, 60 min, then TGF-β 6 h, 4-parameter logistic regression, 4 biological replicates
T1 construct: host or cells: HEK293T CAGA12-Luc/TK Renilla reporter cells
T1 sequence (P36897 34-503): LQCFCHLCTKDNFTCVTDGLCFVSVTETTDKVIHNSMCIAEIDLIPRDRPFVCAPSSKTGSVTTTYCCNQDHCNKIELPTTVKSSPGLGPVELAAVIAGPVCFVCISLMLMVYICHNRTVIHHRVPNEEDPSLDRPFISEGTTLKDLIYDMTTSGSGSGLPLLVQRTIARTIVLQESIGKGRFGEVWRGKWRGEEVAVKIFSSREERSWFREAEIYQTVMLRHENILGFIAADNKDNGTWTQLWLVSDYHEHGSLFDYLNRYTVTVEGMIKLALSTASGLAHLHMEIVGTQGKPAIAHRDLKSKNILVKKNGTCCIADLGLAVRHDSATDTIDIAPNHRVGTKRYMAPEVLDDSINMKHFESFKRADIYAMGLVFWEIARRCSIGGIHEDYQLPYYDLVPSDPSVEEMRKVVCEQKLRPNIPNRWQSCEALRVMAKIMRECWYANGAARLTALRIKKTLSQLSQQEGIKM
T1 sequence (P37173 23-567): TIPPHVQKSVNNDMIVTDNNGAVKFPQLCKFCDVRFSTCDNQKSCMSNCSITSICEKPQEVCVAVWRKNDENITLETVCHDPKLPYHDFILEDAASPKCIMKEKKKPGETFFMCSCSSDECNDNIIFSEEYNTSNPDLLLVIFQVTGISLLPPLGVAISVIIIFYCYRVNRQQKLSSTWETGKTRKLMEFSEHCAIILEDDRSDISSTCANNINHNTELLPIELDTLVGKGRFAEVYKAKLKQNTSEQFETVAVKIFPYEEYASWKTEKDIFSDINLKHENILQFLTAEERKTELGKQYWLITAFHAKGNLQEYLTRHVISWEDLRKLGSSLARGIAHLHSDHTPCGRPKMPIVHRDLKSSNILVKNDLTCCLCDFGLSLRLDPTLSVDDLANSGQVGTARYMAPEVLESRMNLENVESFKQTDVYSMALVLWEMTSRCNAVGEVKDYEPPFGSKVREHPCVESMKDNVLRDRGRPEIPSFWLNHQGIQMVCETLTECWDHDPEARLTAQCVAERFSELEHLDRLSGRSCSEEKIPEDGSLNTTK
Text: The cell line stably expresses CAGA12‐Luc, a Smad3/Smad4‐dependent reporter containing 12 copies of CAGAC motifs derived from the PAI‐1 promoter. This reporter protein is expressed and secreted by HEK293T cells upon TGFβRI/TGFβRII activation. The cell line also contains a Renilla reporter driven by a thymidine kinase (TK) promoter that acts as an internal control.
The presence of the described reporter activity allows HEK293T cells to be used to measure TGF‐β signalling activity using luciferase assays. The Promega Dual‐Luciferase Reporter Assay System (Promega, cat. no E1910) kit was used for assays on the HEK293T cell line. The following procedure was carried out according to manufacturer protocols. Cells were seeded in 96‐well plates coated with poly‐d‐lysine (PDL), in a DMEM 10% FBS medium. All experiments were carried out with the use of 4 biological replicates per group. After 24 h of incubation, the culture medium was removed and the cells were washed three times with PBS. […] After incubation, an additional volume of fresh blank medium or medium supplemented with TGF‐β was added to the wells. The cells were incubated again for 6 h, after which the contents of the wells were removed and the wells rinsed again with PBS. The cells were stored at −80°C until measurement.
Prior to measurement, cells were lysed using a passive lysis buffer. The lysate from each well was added to corresponding wells on a new 96‐well plate containing a reagent that induces luminescence of the first reporter protein, which is expressed by the HEK293T cells upon TGF‐β receptor activation. Luminescence was read using a plate reader with a luminescence measurement function (Victor EX, Perkin Elmer), following the kit manufacturer's instructions. After the measurement, a reagent that activates the second reporter protein (constitutively expressed by HEK293T cells, serves as an internal control) was added to each well, and the luminescence reading was repeated. All luciferase‐based assays were conducted using 4 biological replicates (cell cultures seeded and cultured independently) for each inhibitor and concentration tested.
IC50 values were calculated using 4‐parameter logistic regression in the Prism 9.0 (GraphPad) software. […] All measured results were considered significant at α level = 0.05. The α level is the threshold value against which p‐values are measured. p < 0.05 was considered to indicate a statistically significant difference.

[3] = tested on: HEK293T cells; assay: Cytotoxicity by flow cytometry (FITC Annexin V / propidium iodide) on HEK293T cells; assay type: cell-based, human; settings: for Viability (%): 20 µM
Description: HEK293T cells were seeded in 12‐well plates coated with poly‐d‐lysine (PDL) in a DMEM 10% FBS medium. After 24 h of incubation, the culture medium was removed and the cells were washed three times with PBS. Next, either empty fresh culture medium, medium with the addition of a commercial small molecule (SD‐208 or SB‐525334), or one of the novel peptides TGF‐β inhibitors was added. After 24 h of incubation, cells were removed from the wells and counted using a haemocytometer. Cells were prepared for flow cytometry using the Pharmingen FITC Annexin V Apoptosis Detection Kit I (BD Biosciences, cat. no 556547). 100,000 cells from each sample were suspended in a binding buffer and then stained with FITC and/or propidium iodide. After a 15‐min incubation, the fluorescence profiles of each cell population were measured using a flow cytometer (CytoFLEX, Beckman Coulter), identifying the proportion of cells in apoptosis and necrosis. The data were visualised and quantified by constructing a dot plot using the CytExpert (Beckman Coulter) software.

IC50 [2] [µM]	Compound	also measured
–	NC(=O)c1ccc(-c2nc(-c3ccc4c(c3)OCO4)c(-c3ccccn3)[nH]2)cc1 [SB-431542]	IC50 [1]: 0.094 µM
20.8	YLWSSDTQH [2_7]	–
43.3	ALDAAYCFR [1_1]	Viability (%) [3]: 88.7%
25	WSSDTQHSR [2_9]	–
–	Cc1cccc(-c2[nH]c(C(C)(C)C)nc2-c2ccc3nccnc3c2)n1 [SB-525334, 6‐[2‐tert‐Butyl‐5‐(6‐methyl‐pyridin‐2‐yl)‐1H‐imidazol‐4‐yl]‐quinoxaline]	Viability (%) [3]: 86.9%
21.9	CPYLWSSDT [2_5]	–
29.3	AGACPYLWS [2_2]	–
57.2	AAYCFRNVQ [1_4]	–
27.4	LWSSDTQHS [2_8]	–
27.7	ACPYLWSSD [2_4]	–
42.4	DAAYCFRNV [1_3]	–
23.6	GACPYLWSS [2_3]	Viability (%) [3]: 86.4%
–	TSLDASIIWAMMQN [P144]	Viability (%) [3]: 82.2%; Effect on HEK293T cell viability compared to untreated cells ([3]; 20 μM, 24 h, flow cytometry): none of the tested inhibitors reduced cell viability to a statistically significant degree
25.7	PYLWSSDTQ [2_6]	–
44	LDAAYCFRN [1_2]	–
24.2	AYCFRNVQD [1_5]	–
–	Fc1ccc(Cl)cc1-c1nc(Nc2ccncc2)c2nccnc2n1 [SD-208]	Viability (%) [3]: 87.1%; IC50 [1]: […]
